Measurements as given in ChEMBL document CHEMBL4507268 (2021).

Experiments:
Details in all cases: Compound concentration 1000.0 nM
[1] = target: Calcium/calmodulin-dependent protein kinase type 1G (Homo sapiens) (UniProt Q96NX5)
[2] = target: T1, Testis-specific serine/threonine-protein kinase 1 (Homo sapiens) (UniProt Q9BXA7)
T1 sequence (whole entry): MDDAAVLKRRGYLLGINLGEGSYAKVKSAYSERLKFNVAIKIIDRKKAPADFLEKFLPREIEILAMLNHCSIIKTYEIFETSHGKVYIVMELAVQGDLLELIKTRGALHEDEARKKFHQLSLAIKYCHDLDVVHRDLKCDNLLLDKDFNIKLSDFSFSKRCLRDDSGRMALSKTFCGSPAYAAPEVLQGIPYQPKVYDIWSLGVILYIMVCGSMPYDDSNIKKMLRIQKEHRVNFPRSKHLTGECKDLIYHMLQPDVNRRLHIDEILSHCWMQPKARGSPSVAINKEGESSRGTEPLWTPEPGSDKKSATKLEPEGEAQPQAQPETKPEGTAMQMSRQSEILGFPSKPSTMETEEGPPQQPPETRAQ

[3] = target: T2, NUAK family SNF1-like kinase 2 (Homo sapiens) (UniProt Q9H093)
T2 sequence (whole entry): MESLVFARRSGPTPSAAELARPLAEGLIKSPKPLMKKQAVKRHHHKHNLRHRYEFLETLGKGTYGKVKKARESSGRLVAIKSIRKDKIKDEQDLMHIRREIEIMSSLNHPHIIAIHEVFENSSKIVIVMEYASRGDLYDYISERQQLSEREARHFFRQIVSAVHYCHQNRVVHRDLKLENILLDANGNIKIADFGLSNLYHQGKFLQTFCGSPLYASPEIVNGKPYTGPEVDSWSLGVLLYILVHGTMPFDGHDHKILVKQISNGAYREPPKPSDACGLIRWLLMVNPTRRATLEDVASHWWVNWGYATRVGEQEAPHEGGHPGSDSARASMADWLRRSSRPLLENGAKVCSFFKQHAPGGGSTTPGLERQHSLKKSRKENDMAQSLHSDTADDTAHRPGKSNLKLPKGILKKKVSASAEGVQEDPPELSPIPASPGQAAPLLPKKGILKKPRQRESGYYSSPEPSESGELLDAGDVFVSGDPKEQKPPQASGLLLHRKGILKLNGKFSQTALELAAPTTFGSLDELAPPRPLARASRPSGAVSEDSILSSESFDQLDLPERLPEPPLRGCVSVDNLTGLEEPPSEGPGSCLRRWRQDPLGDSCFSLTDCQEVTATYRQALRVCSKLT

[4] = target: Serine/threonine-protein kinase 32A (Homo sapiens) (UniProt Q8WU08)
[5] = target: T3, Serine/threonine-protein kinase BRSK2 (Homo sapiens) (UniProt Q8IWQ3)
T3 sequence (whole entry): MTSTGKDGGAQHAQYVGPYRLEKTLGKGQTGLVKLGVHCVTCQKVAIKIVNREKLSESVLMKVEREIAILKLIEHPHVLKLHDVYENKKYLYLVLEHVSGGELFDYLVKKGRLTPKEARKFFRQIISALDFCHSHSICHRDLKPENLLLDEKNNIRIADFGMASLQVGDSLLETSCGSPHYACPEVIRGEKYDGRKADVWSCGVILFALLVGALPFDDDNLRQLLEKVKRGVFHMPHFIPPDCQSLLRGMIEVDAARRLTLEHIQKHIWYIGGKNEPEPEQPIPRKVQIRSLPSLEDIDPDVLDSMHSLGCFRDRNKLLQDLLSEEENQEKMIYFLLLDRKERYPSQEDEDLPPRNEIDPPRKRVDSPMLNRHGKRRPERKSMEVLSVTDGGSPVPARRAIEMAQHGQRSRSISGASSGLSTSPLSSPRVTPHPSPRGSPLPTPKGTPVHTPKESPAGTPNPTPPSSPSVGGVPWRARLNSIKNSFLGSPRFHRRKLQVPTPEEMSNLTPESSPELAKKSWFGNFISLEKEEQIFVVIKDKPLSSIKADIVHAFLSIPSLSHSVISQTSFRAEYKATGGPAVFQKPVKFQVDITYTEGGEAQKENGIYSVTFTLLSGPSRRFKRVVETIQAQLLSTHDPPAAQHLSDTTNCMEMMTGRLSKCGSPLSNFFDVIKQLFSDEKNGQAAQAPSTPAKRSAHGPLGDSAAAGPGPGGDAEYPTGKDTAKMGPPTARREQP

[6] = target: Interleukin-1 receptor-associated kinase 3 (Homo sapiens) (UniProt Q9Y616)
[7] = target: T4, Myosin light chain kinase (Homo sapiens) (UniProt Q32MK0)
T4 sequence (whole entry): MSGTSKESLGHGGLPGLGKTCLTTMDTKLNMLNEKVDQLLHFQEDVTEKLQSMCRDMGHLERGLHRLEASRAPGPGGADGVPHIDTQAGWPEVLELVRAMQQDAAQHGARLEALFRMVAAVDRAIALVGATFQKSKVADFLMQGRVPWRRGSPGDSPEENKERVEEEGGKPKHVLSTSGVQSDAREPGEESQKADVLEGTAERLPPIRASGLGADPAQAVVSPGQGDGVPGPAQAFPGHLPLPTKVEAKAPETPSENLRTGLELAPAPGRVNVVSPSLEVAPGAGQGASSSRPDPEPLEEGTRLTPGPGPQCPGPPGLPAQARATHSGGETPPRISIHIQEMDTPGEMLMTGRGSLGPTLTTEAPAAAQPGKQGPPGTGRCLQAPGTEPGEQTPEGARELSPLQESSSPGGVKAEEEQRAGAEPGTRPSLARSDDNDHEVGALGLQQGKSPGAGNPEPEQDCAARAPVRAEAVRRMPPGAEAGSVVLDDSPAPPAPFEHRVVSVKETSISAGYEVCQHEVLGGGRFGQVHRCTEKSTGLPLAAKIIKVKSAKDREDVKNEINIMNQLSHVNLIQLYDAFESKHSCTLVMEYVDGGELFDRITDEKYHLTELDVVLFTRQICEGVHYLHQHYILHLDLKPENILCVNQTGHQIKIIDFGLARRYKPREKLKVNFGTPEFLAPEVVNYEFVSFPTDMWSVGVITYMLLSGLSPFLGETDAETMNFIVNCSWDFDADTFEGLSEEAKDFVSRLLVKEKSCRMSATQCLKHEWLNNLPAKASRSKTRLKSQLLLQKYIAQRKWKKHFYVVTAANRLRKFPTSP

[8] = target: Myosin light chain kinase, smooth muscle (Homo sapiens) (UniProt Q15746)
[9] = target: Microtubule-associated serine/threonine-protein kinase 1 (Homo sapiens) (UniProt Q9Y2H9)
[10] = target: Cyclin-dependent kinase 11A (Homo sapiens) (UniProt Q9UQ88)
[11] = target: Receptor-interacting serine/threonine-protein kinase 2 (Homo sapiens) (UniProt O43353)

Measured: residual activity

Sequence of Calcium/calmodulin-dependent protein kinase type 1G (Homo sapiens) (Q96NX5 whole entry): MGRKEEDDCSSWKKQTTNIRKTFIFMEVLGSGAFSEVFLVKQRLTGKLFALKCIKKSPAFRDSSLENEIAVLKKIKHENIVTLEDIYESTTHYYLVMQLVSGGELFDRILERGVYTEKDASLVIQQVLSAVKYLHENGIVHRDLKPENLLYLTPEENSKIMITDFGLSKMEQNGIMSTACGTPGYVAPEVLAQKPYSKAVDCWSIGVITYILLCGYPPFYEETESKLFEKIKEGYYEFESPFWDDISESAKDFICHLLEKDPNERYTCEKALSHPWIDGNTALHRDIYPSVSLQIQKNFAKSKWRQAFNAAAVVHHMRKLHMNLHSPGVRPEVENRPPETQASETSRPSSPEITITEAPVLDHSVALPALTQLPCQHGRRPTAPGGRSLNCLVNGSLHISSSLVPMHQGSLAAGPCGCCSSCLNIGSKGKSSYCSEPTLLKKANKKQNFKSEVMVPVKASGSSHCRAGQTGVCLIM
Sequence of Cyclin-dependent kinase 11A (Homo sapiens) (Q9UQ88 whole entry): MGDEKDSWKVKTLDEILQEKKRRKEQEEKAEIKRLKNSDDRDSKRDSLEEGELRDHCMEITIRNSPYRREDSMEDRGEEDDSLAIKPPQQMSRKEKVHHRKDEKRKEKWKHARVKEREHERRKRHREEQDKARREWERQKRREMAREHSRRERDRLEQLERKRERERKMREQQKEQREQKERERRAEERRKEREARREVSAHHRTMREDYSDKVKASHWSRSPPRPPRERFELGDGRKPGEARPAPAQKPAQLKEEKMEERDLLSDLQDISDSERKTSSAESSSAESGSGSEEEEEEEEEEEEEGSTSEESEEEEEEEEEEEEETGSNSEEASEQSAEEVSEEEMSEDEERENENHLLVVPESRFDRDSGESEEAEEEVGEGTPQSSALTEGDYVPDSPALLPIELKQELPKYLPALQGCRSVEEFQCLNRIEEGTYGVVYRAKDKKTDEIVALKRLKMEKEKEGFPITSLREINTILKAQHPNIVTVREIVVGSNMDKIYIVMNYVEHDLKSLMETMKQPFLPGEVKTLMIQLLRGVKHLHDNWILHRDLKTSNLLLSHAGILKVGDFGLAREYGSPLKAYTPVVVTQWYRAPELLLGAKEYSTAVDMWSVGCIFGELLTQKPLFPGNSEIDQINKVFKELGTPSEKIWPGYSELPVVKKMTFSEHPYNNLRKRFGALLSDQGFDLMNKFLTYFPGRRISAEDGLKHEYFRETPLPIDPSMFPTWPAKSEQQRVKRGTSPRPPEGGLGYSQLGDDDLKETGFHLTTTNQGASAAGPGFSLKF
Sequence of Serine/threonine-protein kinase 32A (Homo sapiens) (Q8WU08 whole entry): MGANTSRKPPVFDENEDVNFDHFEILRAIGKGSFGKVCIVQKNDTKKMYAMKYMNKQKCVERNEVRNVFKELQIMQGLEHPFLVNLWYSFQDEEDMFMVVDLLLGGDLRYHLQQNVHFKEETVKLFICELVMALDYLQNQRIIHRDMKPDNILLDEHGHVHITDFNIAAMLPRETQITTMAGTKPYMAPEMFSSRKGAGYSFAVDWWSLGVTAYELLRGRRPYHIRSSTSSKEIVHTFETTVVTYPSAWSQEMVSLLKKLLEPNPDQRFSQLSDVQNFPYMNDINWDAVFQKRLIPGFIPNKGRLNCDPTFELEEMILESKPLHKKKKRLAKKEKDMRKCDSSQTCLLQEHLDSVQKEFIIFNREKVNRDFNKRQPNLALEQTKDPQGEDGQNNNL
Sequence of Receptor-interacting serine/threonine-protein kinase 2 (Homo sapiens) (O43353 whole entry): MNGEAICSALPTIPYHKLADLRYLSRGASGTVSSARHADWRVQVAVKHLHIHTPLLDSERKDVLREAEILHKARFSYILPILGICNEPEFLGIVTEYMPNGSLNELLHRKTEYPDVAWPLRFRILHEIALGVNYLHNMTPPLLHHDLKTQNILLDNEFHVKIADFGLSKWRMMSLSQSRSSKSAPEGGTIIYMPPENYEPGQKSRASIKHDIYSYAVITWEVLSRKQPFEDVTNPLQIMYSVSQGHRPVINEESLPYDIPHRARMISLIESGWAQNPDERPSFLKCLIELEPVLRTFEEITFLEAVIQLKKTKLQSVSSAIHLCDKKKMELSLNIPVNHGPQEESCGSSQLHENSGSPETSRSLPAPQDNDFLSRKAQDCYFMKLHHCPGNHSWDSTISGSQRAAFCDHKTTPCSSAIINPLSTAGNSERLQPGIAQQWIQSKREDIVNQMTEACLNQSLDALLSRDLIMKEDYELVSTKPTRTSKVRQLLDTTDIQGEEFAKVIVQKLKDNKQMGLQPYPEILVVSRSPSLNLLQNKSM
Sequence of Interleukin-1 receptor-associated kinase 3 (Homo sapiens) (Q9Y616 whole entry): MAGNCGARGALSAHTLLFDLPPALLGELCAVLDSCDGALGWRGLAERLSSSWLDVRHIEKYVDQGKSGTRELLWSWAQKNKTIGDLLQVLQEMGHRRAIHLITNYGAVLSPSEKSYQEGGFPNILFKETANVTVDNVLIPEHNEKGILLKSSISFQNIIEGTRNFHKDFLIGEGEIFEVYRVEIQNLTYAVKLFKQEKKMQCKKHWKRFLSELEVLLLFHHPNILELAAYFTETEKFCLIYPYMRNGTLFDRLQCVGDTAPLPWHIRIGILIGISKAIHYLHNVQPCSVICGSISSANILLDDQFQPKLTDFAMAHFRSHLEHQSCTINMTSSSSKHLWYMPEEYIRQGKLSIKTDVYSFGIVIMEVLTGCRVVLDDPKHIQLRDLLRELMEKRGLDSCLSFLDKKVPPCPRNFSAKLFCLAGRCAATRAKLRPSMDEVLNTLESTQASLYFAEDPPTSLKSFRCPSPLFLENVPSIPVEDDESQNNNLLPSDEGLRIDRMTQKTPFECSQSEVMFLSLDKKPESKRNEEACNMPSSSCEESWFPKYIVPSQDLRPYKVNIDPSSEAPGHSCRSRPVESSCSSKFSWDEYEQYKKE
Sequence of Microtubule-associated serine/threonine-protein kinase 1 (Homo sapiens) (Q9Y2H9 whole entry, looked up): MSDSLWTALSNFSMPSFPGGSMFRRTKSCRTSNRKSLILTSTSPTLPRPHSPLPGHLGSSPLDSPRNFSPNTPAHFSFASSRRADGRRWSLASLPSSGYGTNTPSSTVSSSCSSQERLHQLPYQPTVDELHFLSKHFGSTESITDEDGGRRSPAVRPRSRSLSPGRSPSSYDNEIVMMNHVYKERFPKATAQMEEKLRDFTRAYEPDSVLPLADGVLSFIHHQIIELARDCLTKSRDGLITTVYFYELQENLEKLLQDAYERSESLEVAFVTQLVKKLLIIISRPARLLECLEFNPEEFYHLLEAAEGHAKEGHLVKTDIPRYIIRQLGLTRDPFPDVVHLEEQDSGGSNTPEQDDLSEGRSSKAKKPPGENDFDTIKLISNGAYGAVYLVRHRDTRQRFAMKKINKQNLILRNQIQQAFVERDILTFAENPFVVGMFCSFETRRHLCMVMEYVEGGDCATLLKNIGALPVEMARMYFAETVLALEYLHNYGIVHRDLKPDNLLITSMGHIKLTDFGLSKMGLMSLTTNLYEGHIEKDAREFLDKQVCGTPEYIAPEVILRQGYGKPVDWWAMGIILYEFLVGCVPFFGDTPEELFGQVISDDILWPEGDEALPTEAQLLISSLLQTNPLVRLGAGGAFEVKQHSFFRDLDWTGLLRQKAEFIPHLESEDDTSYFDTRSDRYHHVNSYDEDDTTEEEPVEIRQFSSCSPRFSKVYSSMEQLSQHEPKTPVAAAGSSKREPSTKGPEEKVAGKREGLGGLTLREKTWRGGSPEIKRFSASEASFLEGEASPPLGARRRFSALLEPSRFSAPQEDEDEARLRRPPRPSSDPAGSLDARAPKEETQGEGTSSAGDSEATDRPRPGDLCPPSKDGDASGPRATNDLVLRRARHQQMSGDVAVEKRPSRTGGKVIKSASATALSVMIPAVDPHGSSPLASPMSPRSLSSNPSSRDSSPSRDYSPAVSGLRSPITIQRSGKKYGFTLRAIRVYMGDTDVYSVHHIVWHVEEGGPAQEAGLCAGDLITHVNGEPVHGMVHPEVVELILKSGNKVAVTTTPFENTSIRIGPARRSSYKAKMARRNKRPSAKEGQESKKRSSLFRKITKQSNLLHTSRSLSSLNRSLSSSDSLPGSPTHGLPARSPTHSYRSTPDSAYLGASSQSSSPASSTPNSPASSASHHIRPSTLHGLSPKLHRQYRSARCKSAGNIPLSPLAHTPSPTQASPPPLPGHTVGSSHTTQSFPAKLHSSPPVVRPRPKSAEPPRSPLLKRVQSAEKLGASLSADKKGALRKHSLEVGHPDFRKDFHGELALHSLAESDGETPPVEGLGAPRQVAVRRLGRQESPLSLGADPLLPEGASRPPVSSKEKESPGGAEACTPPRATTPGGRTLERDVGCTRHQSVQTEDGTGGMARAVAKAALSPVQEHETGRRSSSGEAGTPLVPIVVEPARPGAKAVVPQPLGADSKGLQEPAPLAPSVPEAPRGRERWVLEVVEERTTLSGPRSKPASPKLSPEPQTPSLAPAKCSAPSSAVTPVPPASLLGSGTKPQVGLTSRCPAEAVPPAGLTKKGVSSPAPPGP

Cc1nc(C2CCN(C(=O)c3ccc(OC(F)(F)F)cc3N)CC2)c2ncc(N3CCN(C)CC3)cc2n1 [BAY-693]
inactive: [1] 100% | [2] 100% | [3] 81% | [4] 86% | [5] 100% | [6] 99% | [7] 100% | [8] 100% | [9] 100% | [10] 100% | [11] 94%

CN1CCN(c2cnc3c(C4CCN(C(=O)c5ccc(OC(F)(F)F)cc5N)CC4)ncnc3c2)CC1 [BAY-885]
inactive: [1] 100% | [2] 100% | [3] 90% | [4] 94% | [5] 100% | [6] 100% | [7] 82% | [8] 88% | [9] 100% | [10] 61% | [11] 100%
